Assay results from patent US11464770B2, “Anticancer pharmaceutical composition” (NATIONAL CANCER CENTER, priority 2016, dated 2022).
Like-named read-outs stand apart in the source and are kept apart here.

Columns and labels:
[1] = tested on: breast cancer cell lines (e.g. MDA-MB-231, SK-BR-3, MDA-MB-468, HCC1954); experiment: Cell based assay, cell viability (CellTiter-Glo), breast cancer cell lines
Procedure, shortened: (§1)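 Plated cells (24 h) → compound to 0–2 μM final → 72 h → CellTiter-Glo ATP luminescence.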

[2] = tested on: ovarian cancer cell lines; experiment: Cell based assay, cell viability (CellTiter-Glo), ovarian cancer cell lines; conditions: Homo sapiens; OVCAR-3 cells
Procedure, shortened: as §1

[3] = tested on: RT4: human urinary bladder transitional cell papilloma; experiment: Cell based assay, cytotoxicity in RT4 papilloma cells (selectivity); conditions: Homo sapiens, RT-4; RT4 cells
[4] = Homo sapiens, BT-20 cells, 72 hours treatment, CellTiter-Glo cell viability, read-out: IC50, Breast cancer cell line BT-20
[5] = Homo sapiens, HCC1395 cells, 72 hours treatment, CellTiter-Glo cell viability, read-out: IC50, Breast cancer cell line HCC1395
[6] = Homo sapiens, HCC1954 cells, 72 hours treatment, CellTiter-Glo cell viability, read-out: IC50, Breast cancer cell line HCC1954
[7] = Homo sapiens, JIMT-1 cells, 72 hours treatment, CellTiter-Glo cell viability, read-out: IC50, Breast cancer cell line JIMT-1
[8] = Homo sapiens, MCF7 cells, 72 hours treatment, CellTiter-Glo cell viability, read-out: IC50, Breast cancer cell line MCF7
[9] = Homo sapiens, MDA-MB-231 cells, 72 hours treatment, CellTiter-Glo cell viability, read-out: IC50, Breast cancer cell line MDA-MB-231
[10] = Homo sapiens, MDA-MB-468 cells, 72 hours treatment, CellTiter-Glo cell viability, read-out: IC50, Breast cancer cell line MDA-MB-468
[11] = Homo sapiens, SK-BR-3 cells, 72 hours treatment, CellTiter-Glo cell viability, read-out: IC50, Breast cancer cell line SK-BR-3
[12] = MDA-MB-231-L/DOX cells, 72 hours treatment, CellTiter-Glo cell viability, read-out: IC50, Breast cancer cell line MDA-MB-231-L/DOX
[13] = Breast cancer cell line MDA-MB-231-L/DOX, 72 hours, CellTiter-Glo, read-out: IC50, MDA-MB-231-L/DOX
[14] = Homo sapiens, Breast cancer cell line BT-20, 72 hours, CellTiter-Glo, read-out: IC50, BT-20
[15] = Homo sapiens, Breast cancer cell line HCC1395, 72 hours, CellTiter-Glo, read-out: IC50, HCC1395
[16] = Homo sapiens, Breast cancer cell line HCC1954, 72 hours, CellTiter-Glo, read-out: IC50, HCC1954
[17] = Homo sapiens, Breast cancer cell line JIMT-1, 72 hours, CellTiter-Glo, read-out: IC50, JIMT-1
[18] = Homo sapiens, Breast cancer cell line MCF7, 72 hours, CellTiter-Glo, read-out: IC50, MCF7
[19] = Homo sapiens, Breast cancer cell line MDA-MB-231, 72 hours, CellTiter-Glo, read-out: IC50, MDA-MB-231
[20] = Homo sapiens, Breast cancer cell line MDA-MB-468, 72 hours, CellTiter-Glo, read-out: IC50, MDA-MB-468
[21] = Homo sapiens, Breast cancer cell line SK-BR-3, 72 hours, CellTiter-Glo, read-out: IC50, SK-BR-3

SMILES	IC50 [1, 4]	IC50 [1, 5]	IC50 [1, 6]	IC50 [1, 7]	IC50 [1, 8]	IC50 [1, 9]	IC50 [1, 10]	IC50 [1, 11]	IC50 [1, 12]	IC50 [2]	IC50 [3]	IC50 [1, 13]	IC50 [1, 14]	IC50 [1, 15]	IC50 [1, 16]	IC50 [1, 17]	IC50 [1, 18]	IC50 [1, 19]	IC50 [1, 20]	IC50 [1, 21]
Cc1cc(C[S+]([O-])c2[nH]c3c(Cl)ccc(Cl)c3c(=O)c2C(=O)C2CC2)no1 (centres unmarked) [Compound 97, 5,8-dichloro-3-(cyclopropanecarbonyl)-2-(((5-methylisoxazol-3-yl)methyl)sulfinyl)quinolin-4(1H)-one]	> 2000 nM	> 10000 nM	780 nM	> 10000 nM	> 2000 nM	1780 nM	760 nM	760 nM	1130 nM	590 nM	> 10000 nM									
COc1cccc2[nH]c([S+]([O-])Cc3ccc(S(F)(F)(F)(F)F)cc3)c(C(C)=O)c(=O)c12 (centres unmarked) [Compound 93, 3-acetyl-5-methoxy-2-((4-(pentafluoro--sulfanyl)benzyl)sulfinyl)quinolin-4(1H)-one]	> 2000 nM	> 10000 nM	> 2000 nM	> 10000 nM	> 2000 nM	> 2000 nM	> 2000 nM	> 2000 nM	> 2000 nM	> 2000 nM	> 10000 nM									
CC(=O)c1c(SCc2ccccc2)nc2c(Br)ccc(Cl)c2c1O [Compound 52, 1-(2-(benzylthio)-8-bromo-5-chloro-4-hydroxyquinolin-3-yl)ethan-1-one]										> 2000 nM	> 10000 nM	> 2000 nM	> 2000 nM	> 10000 nM	> 2000 nM	> 10000 nM	> 2000 nM	> 2000 nM	> 2000 nM	> 2000 nM
CC(=O)c1c([S+]([O-])Cc2ccccc2)n(C(=O)c2ccc(Br)cc2)c2c(Br)ccc(Cl)c2c1=O (centres unmarked) [Compound 20, 3-acetyl-2-(benzylsulfinyl)-8-bromo-1-(4-bromobenzoyl)-5-chloroquinolin-4(1H)-one]										> 2000 nM	> 10000 nM	> 2000 nM	> 2000 nM	> 10000 nM	> 2000 nM	> 10000 nM	> 2000 nM	> 2000 nM	> 2000 nM	> 2000 nM
CC(=O)c1c([S+](C)[O-])n(C(C)=O)c2c(Br)ccc(Cl)c2c1=O (centres unmarked) [Compound 19, 1,1′-(8-bromo-5-chloro-2-(methylsulfinyl)-4-oxoquinoline-1,3(4H)-diyl)bis(ethan-1-one)]										> 2000 nM	> 10000 nM	> 2000 nM	> 2000 nM	> 10000 nM	> 2000 nM	> 10000 nM	> 2000 nM	> 2000 nM	> 2000 nM	> 2000 nM
CC(=O)c1c([S+]([O-])Cc2cnc3[nH]ccc3c2)[nH]c2c(Br)ccc(Cl)c2c1=O (centres unmarked) [Compound 107, 2-(((1H-pyrrolo[2,3-b]pyridin-5-yl)methyl)sulfinyl)-3-acetyl-8-bromo-5-chloroquinolin-4(1H)-one]	> 2000 nM	> 10000 nM	> 2000 nM	> 10000 nM	> 2000 nM	> 2000 nM	> 2000 nM	> 2000 nM	> 2000 nM	> 2000 nM	> 10000 nM									
CC(=O)c1c([S+]([O-])CC#N)[nH]c2c(Br)ccc(Cl)c2c1=O (centres unmarked) [Compound 65, 2-((3-acetyl-8-bromo-5-chloro-4-oxo-1,4-dihydroquinolin-2-yl)sulfinyl)acetonitrile]										> 2000 nM	> 10000 nM	> 2000 nM	> 2000 nM	> 10000 nM	> 2000 nM	> 10000 nM	> 2000 nM	> 2000 nM	> 2000 nM	> 2000 nM
CC(=O)c1c([S+]([O-])Cc2ccc(-n3cccn3)nc2)[nH]c2c(Br)ccc(Cl)c2c1=O (centres unmarked) [Compound 99, 2-(((6-(1H-pyrazol-1-yl)pyridin-3-yl)methyl)sulfinyl)-3-acetyl-8-bromo-5-chloroquinolin-4(1H)-one]	> 2000 nM	> 2000 nM	780 nM	> 10000 nM	> 2000 nM	1170 nM	670 nM	670 nM	> 2000 nM	630 nM	> 10000 nM									
CC(=O)c1c(SCC#N)[nH]c2c(Br)ccc(Cl)c2c1=O [Compound 66, 2-((3-acetyl-8-bromo-5-chloro-4-oxo-1,4-dihydroquinolin-2-yl)thio)acetonitrile]										> 2000 nM	> 10000 nM	> 2000 nM	> 2000 nM	> 10000 nM	> 2000 nM	> 10000 nM	> 2000 nM	> 2000 nM	> 2000 nM	> 2000 nM
Cc1cc(C[S+]([O-])c2[nH]c3c(Br)ccc(Cl)c3c(=O)c2C(=O)C2CC2)no1 (centres unmarked) [Compound 96, 8-bromo-5-chloro-3-(cyclopropanecarbonyl)-2-(((5-methylisoxazol-3-yl)methyl)sulfinyl)quinolin-4(1H)-one]	> 2000 nM	> 10000 nM	1040 nM	> 10000 nM	> 2000 nM	> 2000 nM	980 nM	980 nM	> 2000 nM	750 nM	> 10000 nM									
